Experimental data from patent publication US20230000949A1, “SOLID COMPOSITIONS COMPRISING A PCSK9 INHIBITOR AND A SALT OF N-(8-(2-HYDROXYBENZOYL)AMINO)CAPRYLIC ACID” (Novo Nordisk A/S, priority 2019, published 2023).

Conditions: pH 6

- Effect on SNAC solubility: concentration dependent effect
Structure (SMILES): NC(=O)c1cccnc1 [Nicotinamide]
